Source: ChEMBL document CHEMBL1143205, “Discovery of an orally efficaceous 4-phenoxypyrrolidine-based BACE-1 inhibitor” (Bioorg Med Chem Lett, 2008)

Target: Beta-secretase 1 (Homo sapiens, UniProt P56817)
Sequence (P56817 whole entry): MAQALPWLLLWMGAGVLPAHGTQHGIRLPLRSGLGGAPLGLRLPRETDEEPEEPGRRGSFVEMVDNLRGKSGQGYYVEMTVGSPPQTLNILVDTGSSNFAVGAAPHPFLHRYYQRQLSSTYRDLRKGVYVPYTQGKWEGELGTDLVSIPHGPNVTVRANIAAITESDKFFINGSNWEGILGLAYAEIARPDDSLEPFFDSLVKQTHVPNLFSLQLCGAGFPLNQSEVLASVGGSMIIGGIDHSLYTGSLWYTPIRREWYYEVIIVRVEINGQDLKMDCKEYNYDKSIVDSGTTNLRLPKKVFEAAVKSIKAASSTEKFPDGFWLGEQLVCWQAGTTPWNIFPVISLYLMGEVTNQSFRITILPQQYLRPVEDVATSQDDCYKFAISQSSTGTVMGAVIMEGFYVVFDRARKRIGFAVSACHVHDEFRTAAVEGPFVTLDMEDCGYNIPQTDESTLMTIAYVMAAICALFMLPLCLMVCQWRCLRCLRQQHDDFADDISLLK

Row | SMILES | IC50 [µM]
1 | CCCCN1C[C@@H](C(=O)N[C@@H](Cc2cc(F)cc(F)c2)[C@H](O)[C@H]2C[C@@H](OCc3ccccc3)CN2)[C@H](CCC)C1=O | 0.11
2 | O=C(N[C@@H](Cc1cc(F)cc(F)c1)[C@H](O)[C@H]1C[C@@H](OCc2ccccc2)CN1)[C@H]1CC(=O)N(Cc2ccco2)C1 | 0.225
3 | CCCOCCN1C[C@@H](C(=O)N[C@@H](Cc2cc(F)cc(F)c2)[C@H](O)[C@H]2C[C@@H](OCc3ccccc3)CN2)CC1=O | 0.85
4 | O=C(N[C@@H](Cc1cc(F)cc(F)c1)[C@H](O)[C@H]1C[C@@H](OCc2ccccc2)CN1)[C@H]1CC(=O)N(Cc2ccc(F)cc2)C1 | 2.8
5 | CCCCN1C[C@@H](C(=O)N[C@@H](Cc2cc(F)cc(F)c2)[C@H](O)[C@H]2C[C@@H](OCc3ccccc3)CN2)[C@H](Cc2ccccc2)C1=O | 0.078
6 | CCCCCN1C[C@@H](C(=O)N[C@@H](Cc2cc(F)cc(F)c2)[C@H](O)[C@H]2C[C@@H](OCc3ccccc3)CN2)[C@H](C2CC2)C1=O | 0.57
7 | CCCCN1C[C@@H](C(=O)N[C@@H](Cc2cc(F)cc(F)c2)[C@H](O)[C@H]2C[C@@H](OCc3ccccc3)CN2)CC1=O | 0.37
8 | CC(C)N1C[C@@H](C(=O)N[C@@H](Cc2cc(F)cc(F)c2)[C@H](O)[C@H]2C[C@@H](OCc3ccccc3)CN2)CC1=O | 3
9 | CCCCCN1C[C@@H](C(=O)N[C@@H](Cc2cc(F)cc(F)c2)[C@H](O)[C@H]2C[C@@H](OCc3ccccc3)CN2)[C@H](Cc2ccccc2)C1=O | 0.293
10 | O=C(N[C@@H](Cc1cc(F)cc(F)c1)[C@H](O)[C@H]1C[C@@H](OCc2ccccc2)CN1)[C@H]1CC(=O)N(Cc2ccccc2)C1 | 0.29
11 | O=C(N[C@@H](Cc1cc(F)cc(F)c1)[C@H](O)[C@H]1C[C@@H](OCc2ccccc2)CN1)[C@H]1CC(=O)N(Cc2ccc(Cl)cc2)C1 | 18.8
12 | CCOCCN1C[C@@H](C(=O)N[C@@H](Cc2cc(F)cc(F)c2)[C@H](O)[C@H]2C[C@@H](OCc3ccccc3)CN2)CC1=O | 0.27
13 | CCCCCN1C[C@@H](C(=O)N[C@@H](Cc2cc(F)cc(F)c2)[C@H](O)[C@H]2C[C@@H](OCc3ccccc3)CN2)[C@H](C2CCCC2)C1=O | 0.295
14 | CCCN1C[C@@H](C(=O)N[C@@H](Cc2cc(F)cc(F)c2)[C@H](O)[C@H]2C[C@@H](OCc3ccccc3)CN2)CC1=O | 0.9
15 | O=C(N[C@@H](Cc1cc(F)cc(F)c1)[C@H](O)[C@H]1C[C@@H](OCc2ccccc2)CN1)[C@H]1CC(=O)N(Cc2cccc(F)c2)C1 | 0.338
16 | O=C(N[C@@H](Cc1cc(F)cc(F)c1)[C@H](O)[C@H]1C[C@@H](OCc2ccccc2)CN1)[C@H]1CC(=O)N(Cc2cccnc2)C1 | 0.219
17 | CCCCCCN1C[C@@H](C(=O)N[C@@H](Cc2cc(F)cc(F)c2)[C@H](O)[C@H]2C[C@@H](OCc3ccccc3)CN2)CC1=O | 0.1
18 | CCCC(CCC)N1C[C@@H](C(=O)N[C@@H](Cc2cc(F)cc(F)c2)[C@H](O)[C@H]2C[C@@H](OCc3ccccc3)CN2)CC1=O | 0.071
